Measured values from patent publication US20230310459A1, “NEUROACTIVE STEROIDS AND THEIR METHODS OF USE” (Sage Therapeutics, Inc., priority 2017, published 2023).
“Also recorded” adds a separate entry of the source.

Columns and labels:
Assay type in all cases: in vivo, human
[1] = Phase 2 open-label study (Part A): plasma pharmacokinetics; conditions: 30 mg oral solution once daily with food, N=13
Method: (§1) Compound 1 was provided as a 6 mg/mL stock aqueous solution, which was further diluted with sterile water to achieve the selected dose that was administered as an oral solution. Participants received an open label 30 mg Compound 1 oral dose administered at 8:00 PM (+/−15 minutes) with food on Days 1 through 14. Subjects who experienced drug-related moderate or severe adverse events (as judged by the study investigators) while receiving the 30 mg dose of study drug were to have their dose reduced to 20 mg for the remaining treatment period. Any subjects not tolerating a 20 mg dose were to be terminated from the study. Vital signs were collected daily. Other study procedures and plasma collection for PK parameters were conducted at various times during the 14-day open label treatment period (procedure details in the Supplemental Appendix). Treatment follow-up was conducted on an outpatient basis and included a follow-up visit at 1 week (21+/−1 day) and at 2 weeks (28+/−1 day) after the last dose of the study drug.
(§2) The primary endpoint of safety and tolerability of Compound 1 was assessed by the frequency and severity of adverse events, vital signs, changes in clinical laboratory measures, physical exams, electrocardiograms (ECGs), the Stanford Sleepiness Scale (SSS) score, and suicide ideation using the Columbia-Suicide Severity Rating Scale (C-SSRS, Supplemental Table 1). Secondary efficacy endpoints included: change from baseline in HAM-D total score, HAM-D response, defined as having a 50% or greater reduction from baseline in HAM-D total score, HAM-D remission, defined as having a HAM-D total score of ≤7, HAM-A change from baseline, and MADRS score change from baseline. The PK profile of Compound 1 was also determined from plasma samples.

[2] = test system: Adult patients with moderate to severe Major Depressive Disorder (MDD); assay: Phase 2 double-blind placebo-controlled trial (Part B): safety and tolerability
Method: In the randomized, double-blind, parallel-group, placebo-controlled trial, eligible patients (with a minimum total score of 22 on the Hamilton Rating Scale for Depression) were stratified based on use of antidepressant treatment (current/stable or not treated/withdrawn ≥30 days) and randomized in a 1:1 ratio to receive Compound 1 Capsules (30 mg) or matching placebo. All doses of study drug were administered at night with food. The study consisted of a 14-day treatment period, and a 4-week follow-up period. The mean HAM-D total scores at baseline were 25.2 for the Compound 1 group and 25.7 for the placebo group (overall range 22-33), representing patients with moderate to severe MDD. Approximately 90 percent of patients in each group completed the study.

[3] = test system: Subjects with Major Depressive Disorder; assay: Phase 2 open-label study (Part A): HAM-D, MADRS, HAM-A efficacy
Method: In this multicenter, open-label, Phase 2 clinical trial, subjects were administered 30 mg Compound 1 on Days 1-14 and assessed through Day 28. Reductions in depressive and anxiety symptoms were assessed by the Hamilton Rating Scales for Depression and Anxiety (HAM-D and HAM-A), and the Montgomery-Asberg Depression Rating Scale (MADRS). Safety and tolerability were assessed via standard safety parameters. Pharmacokinetic parameters were also evaluated.
Written informed consent was provided at screening and was required for enrollment. The diagnosis of MDD was made using the Structured Clinical Interview for Diagnostic and Statistical Manual of Mental Disorders, Fifth Edition (DSM-5) Axis I Disorders (SCID-I), as performed by a qualified healthcare professional. Subjects were also screened with the 17-item Hamilton Rating Scale for Depression (HAM-D) to ensure symptom severity of at least 22. Hamilton Anxiety Rating Scale (HAM-A), Montgomery-Asberg Depression Rating Scale (MADRS), and Clinical Global Impression-Severity (CGI-S) scale were also administered. Using the 17-item HAM-D scale, a patient with a summed score of 17-23 was considered to have moderate depression; a summed score of ≥24 was considered severe depression. Patient histories and concomitant medication information were collected. The study population included subjects of both sexes, ages 18-65 years old, inclusive (inclusion/exclusion criteria below). Subjects remained as inpatients during the first 7 days of the study period and per Investigator's judgement thereafter. Subjects received the standard of care for adult inpatients diagnosed with MDD and were allowed to remain on a stable dose of psychotropic medications that were initiated at least 14 days prior to screening.
as §1, §2
Continuous parameters were summarized as n, mean, and standard deviation, with categorical variables summarized as frequency counts and percentages. For HAM-D, HAM-A, and MADRS total scores, p-values for change from baseline values were calculated based on mixed effects model for repeated measures with visit as fixed effect, adjusting for baseline total score. […]

[4] = Day 15, 30 mg once daily Days 1-14, N=13

## C[C@@]1(O)CC[C@H]2[C@H](CC[C@@H]3[C@@H]2CC[C@]2(C)[C@@H](C(=O)Cn4cc(C#N)cn4)CC[C@@H]32)C1 [Compound 1, 1-(2-((3R,5R,8R,9R,10S,13S,14S,17S)-3-hydroxy-3,13-dimethylhexadecahydro-1H-cyclopenta[a]phenanthren-17-yl)-2-oxoethyl)-1H-pyrazole-4-carbonitrile]
[1]; Day 7, steady state
  Cavg ss, geometric mean: 41.4 ng/mL
[1]; human, plasma, Day 7, steady state, MDD subjects, read-out: Cmax, geometric mean
  Cmax: 101 ng/mL
[1]; human, plasma, Day 7, steady state, read-out: AUC0-t, geometric mean
  AUC(0-t): 992 ng·h/mL
[1]; human, plasma, Day 7, steady state, read-out: AUCinf, geometric mean
  AUC(0-inf): 1150 ng·h/mL
[1]; human, plasma, Day 7, read-out: T1/2, median (converted)
  half-life: 10.3 h
[1]; human, plasma, Day 7, read-out: Tmax, median
  Tmax: 1.1 h
[2]; Capsules 30 mg for 14 days
  deaths, serious or severe adverse events: no deaths, serious or severe adverse events
  most common AEs: headache, dizziness, nausea, and somnolence
  tolerability: generally well-tolerated; also recorded: generally well tolerated
[2]; Capsules 30 mg for 14 days, placebo 46%
  overall incidence of patients who experienced adverse events: 53%
[2]; two patients, none with placebo
  rate of discontinuation from dosing of study drug due to adverse events: 4.4%
[3]; Day 15, end of the treatment period, N=13
  HAM-D remission rate (HAM-D total score ≤7): 62%
[3]; [4]
  HAM-A total score, mean decrease from baseline: 15.5 points
  HAM-D total score, mean decrease from baseline: 19.9 points
  MADRS total score, mean decrease from baseline: 26.4 points
[3]; Day 15, 30 mg once daily Days 1-14, baseline 23.2, N=13
  HAM-A mean total score: 7.7
[3]; Day 15, 30 mg once daily Days 1-14, baseline 36.9, N=13
  MADRS mean total score: 10.5
[3]; Day 15, 30 mg oral solution once daily Days 1-14 with food, baseline 27.2, N=13
  HAM-D mean total score: 7.3
[3]; Day 15, absence of antidepressants at enrollment (n=8)
  HAM-D response rate: 75.0%
[3]; Day 15, all 13 subjects
  HAM-D response rate (total score reduced by at least 50%): 85%
[3]; Day 15, presence of antidepressants at enrollment (n=5)
  HAM-D response rate: 100%
[3]; Day 28, absence of antidepressants at enrollment (n=8)
  HAM-D response rate: 75%
[3]; Day 28, presence of antidepressants at enrollment (n=5)
  HAM-D response rate: 80%
[3]; by Day 6, N=13
  HAM-D remission rate (HAM-D total score ≤7): 39%
[3]; p<0.05, 30 mg once daily
  time at which significant reductions in depressive symptoms (HAM-D) were seen: as early as Day 2
